Target: T1, His6-TEV-PPARγ-(234-505) (Homo sapiens, UniProt P37231)
T1 construct: The His6-TEV-PPARγ-(234-505) protein for assay was expressed and purified; TEV cleavage site (N); made in house
T1 sequence (P37231 234-505): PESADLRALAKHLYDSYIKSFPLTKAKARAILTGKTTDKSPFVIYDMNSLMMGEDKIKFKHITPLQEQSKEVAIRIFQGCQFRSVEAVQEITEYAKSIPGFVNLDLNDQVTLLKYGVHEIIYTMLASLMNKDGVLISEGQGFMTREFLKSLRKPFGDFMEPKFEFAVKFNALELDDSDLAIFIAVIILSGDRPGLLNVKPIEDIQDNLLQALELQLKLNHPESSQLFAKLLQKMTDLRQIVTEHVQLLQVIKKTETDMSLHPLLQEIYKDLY
Assay: TR-FRET Assay to Measure Co-R Peptide Recruitment to PPARγ
Type: biochemical
Settings: Co-R peptide recruitment to PPARγ; read-out: TR-FRET AC50
Procedure, shortened: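 Corepressor recruitment is measured by adding terbium-labeled anti-His antibody and FITC SMRT-ID2 peptide, at 5 and 200 nM final, after a 20-minute room-temperature protein–compound incubation. After one further hour, signal is converted to percent response between DMSO and 500 nM T0070907 wells.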

AC50, > 1000 nM:
COc1cc(-c2cc(C(=O)N3CC4COCC(C3)C4C(=O)NCc3cccc(Cl)c3)n[nH]2)c(Cl)cn1 (stereo not drawn) [7-[5-(5-chloro-2-methoxypyridin-4-yl)-1H-pyrazole-3-carbonyl]-N-[(3-chlorophenyl)methyl]-3-oxa-7-azabicyclo[3.3.1]nonane-9-carboxamide]
COc1cc(-c2cc(C(=O)N3CCC(C(=O)NC4CCCc5[nH]c(=O)ccc54)CC3)n[nH]2)c(Cl)cn1 (stereo not drawn) [1-[5-(5-chloro-2-methoxypyridin-4-yl)-1H-pyrazole-3-carbonyl]-N-(2-oxo-1,2,5,6,7,8-hexahydroquinolin-5-yl)piperidine-4-carboxamide]
COc1cc(-c2cc(C(=O)N3CCC(C(=O)NCc4ccccc4C(F)(F)F)CC3)n[nH]2)c(Cl)cn1 [1-[5-(5-chloro-2-methoxypyridin-4-yl)-1H-pyrazole-3-carbonyl]-N-{[2-(trifluoromethyl)phenyl]methyl}piperidine-4-carboxamide]
COc1cc(-c2cc(C(=O)N3C[C@@H]4[C@H](C3)[C@H]4C(=O)NCc3cccc(Cl)c3)n[nH]2)c(F)cn1
O=C(c1cc(-c2ccncc2)[nH]n1)N1CCC(C(=O)N2CCC(c3ccccc3)CC2)CC1 [4-{3-[4-(4-phenylpiperidine-1-carbonyl)piperidine-1-carbonyl]-1H-pyrazol-5-yl}pyridine]
COc1cc(-c2cc(C(=O)N3CCC(C(=O)NCc4ccc(=O)[nH]c4)CC3)n[nH]2)c(Cl)cn1 [1-[5-(5-chloro-2-methoxypyridin-4-yl)-1H-pyrazole-3-carbonyl]-N-[(6-oxo-1,6-dihydropyridin-3-yl)methyl]piperidine-4-carboxamide]
COc1cc(-c2cc(C(=O)N3CCC(C(=O)NCc4cccc(Cl)c4)CC3)n[nH]2)c(C)cn1 [N-[(3-chlorophenyl)methyl]-1-[5-(2-methoxy-5-methylpyridin-4-yl)-1H-pyrazole-3-carbonyl]piperidine-4-carboxamide]
CN1CCC(NC(=O)C2CCN(C(=O)c3cc(-c4ccncc4)[nH]n3)CC2)CC1 [N-(1-methylpiperidin-4-yl)-1-[5-(pyridin-4-yl)-1H-pyrazole-3-carbonyl]piperidine-4-carboxamide]
COc1cc(-c2cc(C(=O)N3CCC(C(=O)NCc4cccc(C)n4)CC3)n[nH]2)c(Cl)cn1 [1-[5-(5-chloro-2-methoxypyridin-4-yl)-1H-pyrazole-3-carbonyl]-N-[(6-methylpyridin-2-yl)methyl]piperidine-4-carboxamide]
COc1cc(-c2cc(C(=O)N3CCC(C(=O)NCc4cn5cccnc5n4)CC3)n[nH]2)c(Cl)cn1 [1-[5-(5-chloro-2-methoxypyridin-4-yl)-1H-pyrazole-3-carbonyl]-N-({imidazo[1,2-a]pyrimidin-2-yl}methyl)piperidine-4-carboxamide]
COc1ccc(OC)c(CNC(=O)C2CCN(C(=O)c3cc(-c4ccncc4)[nH]n3)CC2)c1 [N-[(2,5-dimethoxyphenyl)methyl]-1-[5-(pyridin-4-yl)-1H-pyrazole-3-carbonyl]piperidine-4-carboxamide]
C[C@@H](CNC(=O)C1CCN(C(=O)c2cc(-c3ccncc3)[nH]n2)CC1)c1ccccc1 [N-[(2R)-2-phenylpropyl]-1-[5-(pyridin-4-yl)-1H-pyrazole-3-carbonyl]piperidine-4-carboxamide]
COc1ccc(Cl)cc1CNC(=O)C1CCN(C(=O)c2cc(-c3ccncc3)[nH]n2)CC1 [N-[(5-chloro-2-methoxyphenyl)methyl]-1-[5-(pyridin-4-yl)-1H-pyrazole-3-carbonyl]piperidine-4-carboxamide]
COc1cc(-c2cc(C(=O)N3CCC(C(=O)NCC4(C)CCCO4)CC3)n[nH]2)c(Cl)cn1 (stereo not drawn) [1-[5-(5-chloro-2-methoxypyridin-4-yl)-1H-pyrazole-3-carbonyl]-N-[(2-methyloxolan-2-yl)methyl]piperidine-4-carboxamide]
COc1ccc(CNC(=O)C2CCN(C(=O)c3cc(-c4cc(OC)ncc4Cl)[nH]n3)CC2)cn1 [1-[5-(5-chloro-2-methoxypyridin-4-yl)-1H-pyrazole-3-carbonyl]-N-[(6-methoxypyridin-3-yl)methyl]piperidine-4-carboxamide]
O=C(N[C@H]1CC[C@@](O)(C(F)(F)F)CC1)C1CCN(C(=O)c2cc(-c3cc(OC4COC4)ncc3F)[nH]n2)C2(CC2)C1 (stereo partly drawn)
CC1CCC(NC(=O)C2CCN(C(=O)c3cc(-c4ccncc4C#N)[nH]n3)CC2)CC1 (stereo not drawn) [1-[5-(3-cyanopyridin-4-yl)-1H-pyrazole-3-carbonyl]-N-(4-methylcyclohexyl)piperidine-4-carboxamide]
COc1cc(-c2cc(C(=O)N3CCC4(C(=O)NCc5cccc(Cl)c5)CC4C3)n[nH]2)c(Cl)cn1 (stereo not drawn) [3-[5-(5-chloro-2-methoxypyridin-4-yl)-1H-pyrazole-3-carbonyl]-N-[(3-chlorophenyl)methyl]-3-azabicyclo[4.1.0]heptane-6-carboxamide]
Cn1cc(CNC(=O)C2CCN(C(=O)c3cc(-c4ccncc4)[nH]n3)CC2)cn1 [N-[(1-methyl-1H-pyrazol-4-yl)methyl]-1-[5-(pyridin-4-yl)-1H-pyrazole-3-carbonyl]piperidine-4-carboxamide]
COc1cc(-c2cc(C(=O)N3CCC(C(=O)NCC4(N(C)C)CCCC4)CC3)n[nH]2)c(Cl)cn1 [1-[5-(5-chloro-2-methoxypyridin-4-yl)-1H-pyrazole-3-carbonyl]-N-{[1-(dimethylamino)cyclopentyl]methyl}piperidine-4-carboxamide]
O=C(NC1CCCN(c2ccccc2)C1)C1CCN(C(=O)c2cc(-c3ccncc3)[nH]n2)CC1 (stereo not drawn) [N-(1-phenylpiperidin-3-yl)-1-[5-(pyridin-4-yl)-1H-pyrazole-3-carbonyl]piperidine-4-carboxamide]
COc1cc(-c2cc(C(=O)N3CC4CC3CC4C(=O)NC3CCC(O)(C(F)(F)F)CC3)n[nH]2)c(F)cn1 (stereo not drawn)
COc1cc(-c2cc(C(=O)N3CCC(C(=O)NCc4cnc(C)cn4)CC3)n[nH]2)c(Cl)cn1 [1-[5-(5-chloro-2-methoxypyridin-4-yl)-1H-pyrazole-3-carbonyl]-N-[(5-methylpyrazin-2-yl)methyl]piperidine-4-carboxamide]
C[C@H]1CC[C@H](NC(=O)C2CCN(C(=O)c3cc(-c4cccnc4)n[nH]3)CC2)CC1
COc1cc(-c2cc(C(=O)N3CCC(C(=O)NC4CCN(C5CCC5)CC4)CC3)n[nH]2)c(Cl)cn1 [1-[5-(5-chloro-2-methoxypyridin-4-yl)-1H-pyrazole-3-carbonyl]-N-(1-cyclobutylpiperidin-4-yl)piperidine-4-carboxamide]
COc1cc(-c2cc(C(=O)N3CCC(C(=O)NCC4OCC4(C)C)CC3)n[nH]2)c(Cl)cn1 (stereo not drawn) [1-[5-(5-chloro-2-methoxypyridin-4-yl)-1H-pyrazole-3-carbonyl]-N-[(3,3-dimethyloxetan-2-yl)methyl]piperidine-4-carboxamide]
CCOCCNC(=O)C1CCN(C(=O)c2cc(-c3ccncc3)[nH]n2)CC1 [N-(2-ethoxyethyl)-1-[5-(pyridin-4-yl)-1H-pyrazole-3-carbonyl]piperidine-4-carboxamide]
COc1cc(-c2cc(C(=O)N3CCC(C(=O)NCC4CCCO4)CC3)n[nH]2)c(Cl)cn1 (stereo not drawn) [1-[5-(5-chloro-2-methoxypyridin-4-yl)-1H-pyrazole-3-carbonyl]-N-[(oxolan-2-yl)methyl]piperidine-4-carboxamide]
COc1cc(-c2cc(C(=O)N3CCC(C(=O)NC(C)C4CCC4)CC3)n[nH]2)c(F)cn1 (stereo not drawn) [N-(1-cyclobutylethyl)-1-[5-(5-fluoro-2-methoxypyridin-4-yl)-1H-pyrazole-3-carbonyl]piperidine-4-carboxamide]
COc1cc(-c2cc(C(=O)N3CCC(C(=O)Nc4cc(C(F)(F)F)no4)CC3)n[nH]2)c(Cl)cn1 [1-[5-(5-chloro-2-methoxypyridin-4-yl)-1H-pyrazole-3-carbonyl]-N-[3-(trifluoromethyl)-1,2-oxazol-5-yl]piperidine-4-carboxamide]
CC1CCC(NC(=O)C2CCN(C(=O)c3cc(-c4ccnc(OC(F)F)c4)[nH]n3)CC2)CC1 (stereo not drawn) [1-{5-[2-(difluoromethoxy)pyridin-4-yl]-1H-pyrazole-3-carbonyl}-N-(4-methylcyclohexyl)piperidine-4-carboxamide]
O=C(c1cc(-c2ccncc2)[nH]n1)N1CCC(C(=O)N2CC[C@@H](O)C2)CC1 [(3R)-1-{1-[5-(pyridin-4-yl)-1H-pyrazole-3-carbonyl]piperidine-4-carbonyl}pyrrolidin-3-ol]

Same assay, conditions: TR-FRET AC50, Co-R peptide recruitment to PPARγ

AC50, > 1000 nM:
COc1cc(-c2cc(C(=O)N3CCC(C(=O)NC(C)(C)c4ccccc4)CC3)n[nH]2)ccn1 [1-[5-(2-methoxypyridin-4-yl)-1H-pyrazole-3-carbonyl]-N-(2-phenylpropan-2-yl)piperidine-4-carboxamide]

Reference: US12606541B2, “PPARg modulators and methods of use” (Eisai R&D Management Co., Ltd., priority 2020, dated 2026)
